In brackets after ≈: the same amount, converted by molar mass.
System: M. tuberculosis NTB1 (DprE1 C387S mutant)
Type: cell-based, Mycobacterium tuberculosis

Row | SMILES | MIC99 NTB1 [µg/mL]
1 | O=c1nc(N2CCN(S(=O)(=O)C3CC3)CC2)sc2c([N+](=O)[O-])cc(C(F)(F)F)cc12 [compound 11626091] | 14.7 (≈ 31.7 µM)
2 | CO[C@H]1/C=C/O[C@@]2(C)Oc3c(C)c(O)c4c(O)c(c(/C=N/N5CCN(C)CC5)c(O)c4c3C2=O)NC(=O)/C(C)=C\C=C\[C@H](C)[C@H](O)[C@@H](C)[C@@H](O)[C@@H](C)[C@H](OC(C)=O)[C@@H]1C [Rifampin, reference compound] | 0.0008 (≈ 0.000972 µM)
3 | O=c1nc(N2CCN(S(=O)(=O)C3CCCCC3)CC2)sc2c([N+](=O)[O-])cc(C(F)(F)F)cc12 [compound 11326127] | >100
4 | O=c1nc(N2CCN(S(=O)(=O)c3cccc4cnccc34)CC2)sc2c([N+](=O)[O-])cc(C(F)(F)F)cc12 [compound 11626094] | >100
5 | O=c1nc(N2CCN(S(=O)(=O)c3cccs3)CC2)sc2c([N+](=O)[O-])cc(C(F)(F)F)cc12 [compound 11326059] | >100
6 | CCCCS(=O)(=O)N1CCN(c2nc(=O)c3cc(C(F)(F)F)cc([N+](=O)[O-])c3s2)CC1 [compound 11626093] | >100
7 | CCS(=O)(=O)N1CCN(c2nc(=O)c3cc(C(F)(F)F)cc([N+](=O)[O-])c3s2)CC1 [compound 11626092] | 25.1 (≈ 55.5 µM)
8 | CS(=O)(=O)N1CCN(c2nc(=O)c3cc(C(F)(F)F)cc([N+](=O)[O-])c3s2)CC1 [compound 11626095] | 75 (≈ 171 µM)
9 | O=c1nc(N2CCN(CC3CCCCC3)CC2)sc2c([N+](=O)[O-])cc(C(F)(F)F)cc12 [PBTZ169, macozinone, reference compound] | >100
